Source: the COVID Moonshot data (paper PMC7615835)
Several values for one entry are separate records, joined by “and”; a condition that tells them apart may be missing. Identical values can stand only once.

Target: SARS-CoV-2 Main Protease (SARS-CoV-2) (UniProt P0DTD1)

| SMILES | IC50 |
| --- | --- |
| O=C(Cc1ccc(Cl)cc1)Nc1cncc2ccccc12 | 23.7 µM |
| Cc1ccnc(N)c1NC(=O)C1CCOc2ccc(Cl)cc21 (centres undefined) | 69.5 µM |
| CS(=O)(=O)c1ccc(O)c(Nc2cc(Cl)cc(CC(=O)Nc3cncc4ccccc34)c2)c1 | 7.61 µM |
| C#CCCCC(=O)N[C@H](C(=O)N[C@H](CC(C)C)C(=O)NN(CCC(N)=O)C(=O)C1OC1C(=O)OCC)C(C)(C)C (stereo in doubt) | 0.292 µM and 0.206 µM |
| O=C(CCl)N1CCCc2cc(NCc3ccc(F)cc3Cl)ccc21 | 19.3 µM |
| O=C(CCl)NC(CO)c1cccc(Cl)c1 (centres undefined) | > 99 µM |
| C[C@]1(C(=O)Nc2cncc3c2CCCC3)CNS(=O)(=O)c2ccc(Cl)cc21 (stereo in doubt) | 0.214 µM |
| Cn1ccc2cc(N(C(=O)c3cocn3)C(C(=O)NCCc3cccc(F)c3)c3cccnc3)ccc21 (centres undefined) | 23.8 µM |
| CC(NC(=O)c1ccc2oc(=S)[nH]c2c1)c1nnc2ccccn12 (centres undefined) | > 99.5 µM |
| COc1ccc(N(C(C)=O)c2cc(Cl)cc(CC(=O)Nc3cncc4ccccc34)c2)cc1N | 2.71 µM |
| O=C(Nc1cncc2ccccc12)C1CN(S(=O)(=O)CC2CC2(F)F)Cc2ccc(Cl)cc21 (centres undefined) | 0.159 µM |
| CC1CN(C(=O)c2cc(=O)[nH]c3ccccc23)CCN1c1cccc(Cl)c1 (centres undefined) | 14.7 µM |
| CN1C(=O)CCc2cc(N(C(=O)c3cocn3)C(C(=O)NCCc3cccc(F)c3)c3cccnc3)ccc21 (centres undefined) | 63.5 µM |
| Cc1ccncc1NC(=O)C(C)c1cccc(C#N)c1 (centres undefined) | 55.2 µM and 54.7 µM |
| CC(C)(C)c1ccc(N(C(=O)c2cc(=O)n3ncnc3[nH]2)C(C(=O)NCCc2cccc(F)c2)c2cccnc2)cc1 (centres undefined) | > 99.5 µM |
| COC1(CS(=O)(=O)N2Cc3ccc(Cl)cc3C3(CCN(c4cncc5ccc(OCCN(C)C)cc45)C3=O)C2)CC1 (centres undefined) | 0.181 µM |
| O=C(Cc1cc(Cl)cc(N2CCN(c3cccc([N+](=O)[O-])c3)CC2)c1)Nc1cncc2ccccc12 | 2.87 µM |
| CC(NC(=O)CCl)c1cc(F)cc(Cl)c1 (centres undefined) | 27.9 µM |
| O=C(CC1(C(=O)Nc2cncc3ccccc23)CCOc2ccc(Cl)cc21)N1CCC2C1CCCN2CCO (centres undefined) | 4.66 µM |
| O=C(Cc1cc(Cl)cc(Nc2cc(C(F)(F)F)ccc2N2CCCC2)c1)Nc1cncc2ccccc12 | 3.51 µM |
| O=C(Nc1cncc2ccccc12)C1CCNc2cc(Cl)c(Cl)cc21 (centres undefined) | 0.154 µM |
| O=C(CC1(C(=O)Nc2cncc3ccccc23)CCOc2ccc(Cl)cc21)N1CCCC1c1nn[nH]n1 (centres undefined) | 7.98 µM |
| O=c1oc(Nc2ccccc2)nc2ccccc12 | 1.57 µM |
| N#Cc1ccc(Nc2cc(Cl)cc(CC(=O)Nc3cncc4ccccc34)c2)cc1Br | 2.16 µM |
| COc1ccccc1CN(C(=O)c1cocn1)C(C(=O)NCCc1cccc(F)c1)c1cccnc1 (centres undefined) | > 99.5 µM |

| SMILES | IC50 |
| --- | --- |
| O=C(Cn1nnc2ccccc21)N(Cc1cccc(Cl)c1)c1ccc(N2CCCCC2)cc1 | 3.65 µM |
| CC(C)(C)c1ccc(N(C(=O)c2cocn2)C(C(=O)NC2CC(F)(F)C2)c2cccnc2)cc1 (centres undefined) | 2.35 µM |
| Cc1ccc(S(=O)(=O)CNC(=O)C(c2cccnc2)N(C(=O)c2cocn2)c2ccc(C(C)(C)C)cc2)cc1 (centres undefined) | 62.9 µM |
| O=C(Cc1cc(Cl)cc(N[C@@H](CO)Cc2ccccc2)c1)Nc1cncc2ccccc12 (stereo in doubt) | 2.5 µM |
| O=C(Cc1cc(Cl)cc(Nc2ccc(-c3ccccn3)cc2)c1)Nc1cncc2ccccc12 | 1.67 µM |
| O=C(Cc1cccc(Cl)c1)Nc1cnccc1C(=O)O | > 99.5 µM |
| NC(=O)C12COC(CNC(=O)CC3(C(=O)Nc4cncc5ccccc45)CCOc4ccc(Cl)cc43)(C1)C2 (centres undefined) | 9.05 µM |
| O=C(Nc1cncc2ccccc12)C(NCC1CC1)c1ccc(Cl)c(Cl)c1 (centres undefined) | 1.75 µM |
| CS(=O)(=O)c1ccc2c(NC(=O)C3CN(S(=O)(=O)CC4(C#N)CC4)Cc4ccc(Cl)cc43)cncc2c1 (centres undefined) | 0.0582 µM and 0.117 µM |
| Cc1cc(C(=O)CCl)c(C)n1NC(=O)c1n[nH]c(=O)c2ccccc12 | 6.05 µM |
| O=C(Cc1cc(Cl)cc(Nc2cccc(OC(F)(F)F)c2)c1)Nc1cncc2ccccc12 | 1.93 µM |
| O=C(Cc1cccc(Cl)c1)Nc1cccc2[nH]ncc12 | > 99.5 µM |
| CN(C)c1ccc(N(Cc2cscn2)C(=O)Cn2nnc3ccccc32)cc1 | 4.85 µM |
| Cc1ccncc1N1CCN(c2cccc(Cl)c2)C1=O | 81.7 µM |
| C=CC(=O)N(c1ccc2ncsc2c1)C(C(=O)Nc1cccc(CC)c1)c1cccnc1 (centres undefined) | 63.3 µM and 55 µM |
| CNC(=O)CN1CC2(CC(=O)N(c3cncc4ccccc34)C2=O)c2cc(Cl)ccc2C1=O (centres undefined) | 0.26 µM |
| O=C(Cc1cc(Cl)cc2c1OCC2)Nc1cncc2ccccc12 | 1.13 µM and 1.87 µM |
| Cc1nn(-c2cc(Cl)cc(CC(=O)Nc3cncc4ccccc34)c2)c(N)c1Br | 1.72 µM |
| O=C(CC1(C(=O)Nc2cncc3ccccc23)CCOc2ccc(Cl)cc21)N1C[C@@H]2C[C@H]1CN2CC(F)F (stereo in doubt) | 3.78 µM |
| COC(=O)c1ccc(-c2cc(Cl)cc(CC(=O)Nc3cnccc3C)c2)c(OC)c1 | 9.62 µM and 16.8 µM |
| CN(Cc1nnc2ccccn12)C(=O)c1ccnc2ccccc12 | > 99.5 µM |
| CC(=O)NC(C)c1cc(Cl)cc(-c2ccc(S(N)(=O)=O)cc2)c1 (centres undefined) | > 99.5 µM |
| C=CC(=O)N(c1ccc(C(F)(F)F)cc1)C(C(=O)NCCc1cccc(F)c1)c1cncc(Cl)c1 (centres undefined) | 23.9 µM |
| CNS(=O)(=O)c1cc2c(cc1OCc1ccccc1)OCO2 | > 99.5 µM |
| Cc1c(Cl)cc(S(=O)(=O)N2CC=C(c3c[nH]c4ncccc34)CC2)cc1[N+](=O)[O-] | > 99.5 µM |

| SMILES | IC50 |
| --- | --- |
| O=C(Nc1[nH]nc2cccnc12)C1CCOc2ccc(Cl)cc21 (centres undefined) | > 99.5 µM |
| COc1ccc(Cl)cc1OCCNC(=O)c1cc(=O)[nH]c2ccccc12 | > 99.5 µM |
| Cn1c(NCc2cn3ccnc3s2)nc2ccccc21 | > 99.5 µM |
| CCOC(=O)c1c(COc2cc(Cl)cc(CC(=O)Nc3cnccc3C)c2)oc2ccccc12 | > 99.5 µM |
| COc1cc(N(C(=O)c2cocn2)C(C(=O)NCCc2cccc(F)c2)c2cccnc2)ccc1S(=O)(=O)N(C)C (centres undefined) | > 99.5 µM |
| O=C(NCc1ccc(Cl)cc1CN1CCN(C(=O)CCl)CC1)[C@@H]1CCCOC1 (stereo in doubt) | 12.1 µM |
| O=C(Cc1cc(Cl)cc(NCc2cc(F)ccc2Br)c1)Nc1cncc2ccccc12 | 1.88 µM |
| C=CC(=O)N(c1cc(C(C)(C)C)on1)C(C(=O)NCCc1cccc(F)c1)c1cncc(O)c1 (centres undefined) | > 99.5 µM |
| O=C(Cc1cc(Cl)cc(NCc2c(Cl)cccc2Cl)c1)Nc1cncc2ccccc12 | 2.71 µM |
| O=C(Cc1cc(Cl)cc(Nc2ccc(Br)c3ccccc23)c1)Nc1cncc2ccccc12 | 1.98 µM |
| N#Cc1ncc(Cl)cn1 | > 99.5 µM |
| CC(Cc1nc2ccccc2s1)Nc1ccc2nnnn2n1 (centres undefined) | > 99.5 µM |
| O=C(Nc1cncc2cc(CN3CC4(CNC4)C3)ccc12)C1CCOc2ccc(Cl)cc21 (centres undefined) | 1.44 µM |
| CC(C)(C)c1ccc(N(C(=O)c2cocn2)C(C(=O)NC2CCOCC2)c2cccnc2)cc1 (centres undefined) | 3.9 µM |
| Cc1ccc(Nc2cc(Cl)cc(CC(=O)Nc3cncc4ccccc34)c2)c(Br)c1 | 1.9 µM |
| Nc1nn(C(=O)Cc2cccc(Cl)c2)c2cc(F)ccc12 | > 99.5 µM |
| O=C(NCCc1cccc(F)c1)C(c1cccnc1)N(C(=O)c1cocn1)C1CCc2ccccc21 (centres undefined) | > 99.5 µM |
| CC(C)(C#N)CS(=O)(=O)N1Cc2ccc(Cl)cc2C2(CCN(c3cncc4ccccc34)C2=O)C1 (centres undefined) | 0.448 µM |
| CN(C)S(=O)(=O)c1cccc(C(=O)Nc2c(-c3ccccc3)nc3sccn23)c1 | 0.975 µM |
| O=C(COc1cccc(Cl)c1)Nc1cncc2ccccc12 | 11.2 µM |
| COc1nccnc1C(C(=O)NCCc1cccc(F)c1)N(C(=O)c1cocn1)c1ccc(C(C)(C)C)cc1 (centres undefined) | 94.9 µM |
| CC(C)(C)c1ccc(N(C(=O)c2scnc2Cl)C(C(=O)NCCc2cccc(F)c2)c2cccnc2)cc1 (centres undefined) | > 99.5 µM |
| Cc1ccc(S(=O)(=O)NC2CCN(C(=O)CCl)CC2)cc1 | 33.5 µM |
| COc1ccccc1OCCNC(=O)c1cc(N)cc2ccccc12 | > 99.5 µM |
| O=C(Cc1cc(Cl)cc(NC[C@@H](c2cccnc2)N2CCOCC2)c1)Nc1cncc2ccccc12 (stereo in doubt) | 2.58 µM |

| SMILES | IC50 |
| --- | --- |
| O=S(=O)(Nc1ccccc1)c1cc2c(cc1OCc1ccccc1)OCO2 | 72.8 µM |
| CC1(CS(=O)(=O)N2Cc3ccc(Cl)cc3[C@@H](C(=O)Nc3cncc4ccccc34)C2)CC1 (stereo in doubt) | 4.58 µM |
| NCc1cn(CC(=O)N(Cc2ccsc2)c2ccc(-n3cnnc3)cc2)nn1 | > 99.5 µM |
| C=CC(=O)N(Cc1ccccc1Cl)C(C(=O)NC(C)(C)C)c1cccnc1 (centres undefined) | > 99.5 µM |
| CC(C)(C)c1ccc(N(C(=O)c2cocn2)C(C(=O)NCCc2nnn[nH]2)c2cccnc2)cc1 (centres undefined) | > 99.5 µM |
| CC(C)(C)c1ccc(N(C(=O)c2nc3cnccc3s2)C(C(=O)NCCc2cccc(F)c2)c2cccnc2)cc1 (centres undefined) | > 99.5 µM |
| CC(C)(C)c1ccc(N(C(=O)c2ocnc2C(F)(F)F)C(C(=O)NCCc2cccc(F)c2)c2cccnc2)cc1 (centres undefined) | > 99.5 µM |
| Cc1ccncc1NC(=O)Cc1cc(Cl)cc(OCc2ncc[nH]2)c1 | > 99.5 µM |
| O=C(O)CN1C(=O)C(=O)c2cc([N+](=O)[O-])ccc21 | > 99.5 µM |
| NS(=O)(=O)C1Cc2ccccc2N(CCNS(=O)(=O)c2ccccc2)C1 (centres undefined) | > 99.5 µM |
| O=C1CC(c2ccc(N(C(=O)c3cocn3)C(C(=O)NCCc3cccc(F)c3)c3cccnc3)cc2)CC(=O)N1 (centres undefined) | 53.8 µM |
| CC(C)(C)c1ccc(N(C(=O)c2cnc[nH]2)C(C(=O)NCCc2cccc(F)c2)c2cc(=O)[nH]c3ccccc23)cc1 (centres undefined) | 1.31 µM |
| Cc1ccncc1NC(=O)Cc1cc(Cl)cc(S(N)(=O)=O)c1 | 14.6 µM |
| O=C(CCl)N1CCN(S(=O)(=O)c2ccsc2)CC1 | 1.63 µM |
| N#Cc1nccn1CCCc1cccc(Cl)c1 | > 99.5 µM |
| CNS(=O)(=O)N1CCc2ccc(Cl)cc2C1C(=O)Nc1cncc2ccccc12 (centres undefined) | 1.55 µM |
| Clc1ccc2c(c1)C1(CCO2)CCN(c2cncc3cccc(Cl)c23)C1 (centres undefined) | > 99.5 µM |
| N#Cc1ccc(Cl)c(Nc2cc(Cl)cc(CC(=O)Nc3cncc4ccccc34)c2)c1 | 1.99 µM |
| O=C(NNC(=O)c1cccc(-n2nccc2C(F)(F)F)c1)OCc1ccccc1 | > 99.5 µM |
| CCOc1ccc(CNc2cc(Cl)cc(CC(=O)Nc3cncc4ccccc34)c2)cc1 | 3.41 µM |
| CNC(=O)CN1CC(C)(C(=O)Nc2cncc3cc(S(C)(=O)=O)ccc23)c2cc(Cl)ccc2S1(=O)=O (centres undefined) | 0.131 µM and 0.189 µM |
| CN(C)CCOc1ccc2cncc(NC(=O)C3CN(S(=O)(=O)CC4(C#N)CC4)Cc4ccc(Cl)cc43)c2c1 (centres undefined) | 0.117 µM |
| O=CC(=O)N1CCN(Cc2cccc(Cl)c2)CC1 | 56.6 µM and 49.6 µM |
| COc1ncc(Nc2cc(Cl)cc(CC(=O)Nc3cncc4ccccc34)c2)cc1Br | 1.74 µM |
